Source: patent US20250177340A1, “Tartaric Acid Analogs and Uses Thereof” (Lapix Therapeutics, Inc., priority 2021, published 2025)

Assays:
PD-1 [1] = experiment: Percent PD-1+ T-cells in spleens, single dose on Day 7 (Examples 17, 19, 20); assay type: in vivo, C57BL6 mice; conditions: E 0.1, 0.25, 1 mg IV or 2.5 mg PO, F 0.03-1 mg IV or 1 mg PO, G 0.1, 0.4, 1 mg IV or 1 mg PO
Experimental: (§1) Melanoma B16F10 cells were injected IV into C57BL6 mice on Day 0. On Day 7, mice were administered a single dose of 0.1 mg, 0.25 mg, or 1 mg of Compound E IV or 2.5 mg Compound E PO. One group was left untreated. Three mice at each time point were sacrificed, and their spleens were extracted. Percent KLRG1+ and PD-1^+ T-cells were quantified. Briefly, single-cell suspensions prepared from the extracted spleens were prepared and stained for KLRG1, PD-1 and CD8, and analyzed by flow cytometry.
(§2) Melanoma B16F10 cells were injected IV into C57BL6 mice on Day 0. On Day 7, mice were administered a single dose of 0.03 mg, 0.1 mg, 0.3 mg or 1 mg Compound F IV or 1 mg Compound F PO. One group was left untreated. Three mice at each time point were sacrificed, and their spleens were extracted. Percent KLRG1+ and PD-1^+ T-cells were quantified. Briefly, single-cell suspensions prepared from the extracted spleens were prepared and stained for KLRG1, PD-1 and CD8, and analyzed by flow cytometry.
(§3) Melanoma B16F10 cells were injected IV into C57BL6 mice on Day 0. On Day 7, mice were administered a single dose of 0.1 mg, 0.4 mg, or 1 mg Compound G IV or 1 mg Compound G PO. One group was left untreated. Three mice at each time point were sacrificed, and their spleens were extracted. Percent KLRG1+ and PD-1^+ T-cells were quantified. Briefly, single-cell suspensions prepared from the extracted spleens were prepared and stained for KLRG1, PD-1 and CD8, and analyzed by flow cytometry.

Granzyme B and IFN-γ = experiment: Dose-response of GranzymeB/IFN-γ double positivity in murine CD8+ T-cells, Example 9; assay type: cell-based, C57BL/6 mice; conditions: Mus musculus, T-cell
Experimental: A dose-response analysis of compounds B-E in murine CD8+ T-cells was conducted to evaluate the effect of dose on GranzymeB/IFN-γ double positivity.
Compound C, D and E were first dissolved in a small volume of DMSO before diluting to the final desired concentration.
Splenocytes from naïve C57BL/6 mice were stained with CFSE, prepared, cultured, and dosed. Cells were seeded at 2×10^5 cells/well. Negative control was dosed with 10 ng/ml IL-2. After ConA stimulation (10 μg/ml), cells were dosed with log 3 dilution of each compound from 3×10^−9 to 30 µM in triplicates. All wells were dosed with 10 ng/ml of IL-2.
Flow cytometer analysis was performed to assess percent CD8+ T-cells and percent activation by double staining for Granzyme B (GzmB) and IFN-γ as described in Example 7. Concentration versus response curve was fitted to a 4- or 5-parameter log-logistic model using the “dre” package in “R”. Both EC50 and EC90 were obtained by model fitting.

PD-1 [2] = experiment: Percent PD-1+/CD8+ T-cells in splenocytes after a single dose, melanoma murine model; assay type: in vivo, mice
Experimental: (§4) The pharmacodynamic (PD) effects of a single IV dose of Compound B in a melanoma murine model were evaluated. B16F10 melanoma cells were grown in RPMI 1640 media supplemented with 10% FBS and antibiotics (penicillin/streptomycin) using T75 flasks. When cells reached 70-80% confluency, they were treated with 3 ml of 0.25% Trypsin/EDTA. Afterward, detached cells were harvested. A single-cell suspension was prepared in PBS. An IV injection of 10^5 cells in mice marked day −3 of the experiment.
(§5) Animals were housed four per cage, and had access to food and water ad libitum. Compound B was dissolved in sterile PBS, and pH was adjusted to approximately 7.5. Sterile PBS served as control.
(§6) Three days after the IV injection of melanoma cells, animals in the baseline group (n=3) were sacrificed and their spleens were collected for KLRG-1, CTLA-4, and PD-1 analysis. At each predetermined time-point (24, 48, and 120 hours after dosing) three animals from each group were sacrificed for splenocyte analysis of KLRG-1, CTLA-4, and PD-1 expression levels, and expression levels were compared to baseline.
(§7) Spleens collected for splenocyte analysis were prepared into a single-cell suspension for cellular phenotyping by flow cytometry. Cells were stained and gated for CD8. Percent KLRG-1+, CTLA-4+, and PD-1+ CD8+ T-cells were evaluated using flow cytometry.
(§8) The PD effects of a single IV dose of Compound C were evaluated in a melanoma murine model conducted as described in Example 10. […] This study also evaluated whether Compound C was pharmacodynamically active orally.
(§9) In a prior study, Compound C was dosed at 1 mg IV QD for seven days. […] A single PO dose was chosen to confirm oral activity of Compound C. Compound C was dissolved in DMSO, and then diluted in sterile PBS. pH was adjusted to approximately 7.5.
(§10) The oral and intravenous PD effects of a single dose of Compound E were evaluated in a melanoma murine model conducted as described in Example 10.
(§11) Compound E was dissolved in DMSO, and then diluted in sterile PBS. pH was adjusted to approximately 7.5.

B16 F10 melanoma cells = experiment: Tumor growth inhibition using Compound E (Example 18); assay type: in vivo, C57BL/6 mice; conditions: 0.3 or 3 mg orally daily for seven days
Experimental: C57BL/6 mice received 10^5 B16 F10 melanoma cells via SC injection on day 0. At day 7, mice were treated orally with Compound E at 0.3 or 3 mg daily for seven days. Tumor growth inhibition was monitored until all untreated animals reached end point, defined as death by disease (found dead in the cage) or tumor size of 1,000 mm^3 or greater.

Oral bioavailability = assay type: in vivo; conditions: mouse, in vivo; suggested from 2.5 mg oral dose as efficacious as 0.25 mg IV; not evaluated in a PK study
KLRG-1 = experiment: Percent KLRG-1+/CD8+ T-cells in splenocytes after a single dose, melanoma murine model; assay type: in vivo, mice
Experimental: as §4, §5, §6, §7, §8, §9, §10, §11

KLRG1 = experiment: Percent KLRG1+ T-cells in spleens, single dose on Day 7 (Examples 17, 19, 20); assay type: in vivo, C57BL6 mice
Experimental: as §1, §2, §3

[3] = 0.1 mg/mouse IV single dose, 24 h
[4] = 0.1 mg/mouse IV single dose, 48 h
[5] = 0.1 mg/mouse IV single dose, 120 h
[6] = 0.25 mg/mouse IV single dose, 24 h
[7] = 0.25 mg/mouse IV single dose, 48 h
[8] = 0.25 mg/mouse IV single dose, 120 h
[9] = 1 mg/mouse IV single dose, 24 h
[10] = 1 mg/mouse IV single dose, 48 h
[11] = 1 mg/mouse IV single dose, 120 h
[12] = 2.5 mg/mouse po single dose, 24 h
[13] = 2.5 mg/mouse po single dose, 48 h
[14] = 2.5 mg/mouse po single dose, 120 h

O=C(O)[C@H](O)[C@@H](O)C(=O)NCCC(c1ccccc1)c1ccccc1 [Compound E, (2R,3R)-4-((3,3-diphenylpropyl)amino)-2,3-dihydroxy-4-oxobutanoic acid]
percent PD1+ T-cells compared to untreated animals (PD-1 [1]): reduction
EC50 (Granzyme B and IFN-γ; 4-parameter model): 93 nM
EC90 (Granzyme B and IFN-γ; 4-parameter model): 120000 nM
EC50 (Granzyme B and IFN-γ; 5-parameter model): 23 nM
EC90 (Granzyme B and IFN-γ; 5-parameter model): 600 nM
Emax (Granzyme B and IFN-γ; FIG. 4, 5-parameter fit, read-out: maximal response (GzmB/IFN-γ double positive CD8+ T-cells)): ~60%
PD-1+/CD8+ T-cells, mean (PD-1 [2]; [3]): 35%
PD-1+/CD8+ T-cells, mean (PD-1 [2]; [4]): 26%
PD-1+/CD8+ T-cells, mean (PD-1 [2]; [5]): 37%
PD-1+/CD8+ T-cells, mean (PD-1 [2]; [6]): 23%
PD-1+/CD8+ T-cells, mean (PD-1 [2]; [7]): 26%
PD-1+/CD8+ T-cells, mean (PD-1 [2]; [8]): 32%
PD-1+/CD8+ T-cells, mean (PD-1 [2]; [9]): 23%
PD-1+/CD8+ T-cells, mean (PD-1 [2]; [10]): 30%
PD-1+/CD8+ T-cells, mean (PD-1 [2]; [11]): 29%
PD-1+/CD8+ T-cells, mean (PD-1 [2]; [12]): 25%
PD-1+/CD8+ T-cells, mean (PD-1 [2]; [13]): 32%
PD-1+/CD8+ T-cells, mean (PD-1 [2]; [14]): 30%
decrease from baseline in PD-1+/CD8+ T-cell (PD-1 [2]; single dose, 0.25 mg or higher, 24 hours): approximately 39%
tumor growth (B16 F10 melanoma cells): dose-dependent inhibition of tumor growth
bioavailability (Oral bioavailability): ≥ 10%
KLRG-1+/CD8+ T-cells, mean (KLRG-1; [3]): 0.7%
KLRG-1+/CD8+ T-cells, mean (KLRG-1; [4]): 1.2%
KLRG-1+/CD8+ T-cells, mean (KLRG-1; [5]): 1.0%
KLRG-1+/CD8+ T-cells, mean (KLRG-1; [6]): 0.6%
KLRG-1+/CD8+ T-cells, mean (KLRG-1; [7]): 0.9%
KLRG-1+/CD8+ T-cells, mean (KLRG-1; [8]): 0.6%
KLRG-1+/CD8+ T-cells, mean (KLRG-1; [9]): 1.3%
KLRG-1+/CD8+ T-cells, mean (KLRG-1; [10]): 0.6%
KLRG-1+/CD8+ T-cells, mean (KLRG-1; [11]): 1.2%
oral pharmacodynamic activity (KLRG-1; 2.5 mg PO single dose): effective after oral administration
KLRG-1+/CD8+ T-cells, mean (KLRG-1; [12]): 0.6%
KLRG-1+/CD8+ T-cells, mean (KLRG-1; [13]): 1.9%
KLRG-1+/CD8+ T-cells, mean (KLRG-1; [14]): 1.2%
time of nadir of exhaustion markers after dosing (KLRG-1; single dose, KLRG-1, CTLA-4, PD-1): 24 h
activity after oral administration (KLRG1+, PD1+ T-cells) (KLRG1; single PO dose: E 2.5 mg, F 1 mg, G 1 mg): effective after oral administration
percent KLRG1+ T-cells compared to untreated animals (KLRG1; single dose, E 0.1, 0.25, 1 mg IV or 2.5 mg PO, F 0.03-1 mg IV or 1 mg PO, G 0.1, 0.4, 1 mg IV or 1 mg PO): reduction
